This note sets out measurements from publication PMC7535918, “Uncovering a novel molecular mechanism for scavenging sialic acids in bacteria” (The Journal of Biological Chemistry, 2020).

The target of test [1] is T1, RgNanOx (Mediterraneibacter gnavus, UniProt A7B558).
T1 construct: gene RUMGNA_02695; Gfo/Idh/MocA-class Rossmann fold; dimer in the asymmetric unit
The test can be described thus: X-ray crystal structure of the complex ([…] and […] A). It counts as binding. The conditions noted are these: NAD+ bound at Rossmann fold; citric acid from crystallization buffer beside nicotinamide; sodium citrate pH […], PEG […].

Test [2] deals with T1, RgNanOx. The test can be described thus: differential scanning fluorimetry. It counts as binding. The conditions noted are these: […] NADH, […] protein, […] sodium phosphate pH […]. (In DSF a fluorescence change marks the thermal transition of the protein.)

As for `NC(=O)c1ccc[n+]([C@@H]2O[C@H](COP(=O)(O)OP(=O)(O)OC[C@H]3O[C@@H](n4cnc5c(N)ncnc54)[C@H](O)[C@@H]3O)[C@@H](O)[C@H]2O)c1` [NAD^+], the “X-ray crystal structure of the complex (2.58 and 1.74 A)” value in test [1] is recorded as “crystal structure of the recombinant RgNanOx in complex with the NAD^+ cofactor was solved”.

As to `NC(=O)C1=CN([C@@H]2O[C@H](COP(=O)(O)OP(=O)(O)OC[C@H]3O[C@@H](n4cnc5c(N)ncnc54)[C@H](O)[C@@H]3O)[C@@H](O)[C@H]2O)C=CC1` [NADH], the ΔTm result in test [2] was “DSF analysis of RgNanOx and EcNanOx, the ΔTm is shown”.
